Earlier results, collected in patent publication US6562842B2, “Protease inhibitors” (SmithKline Beecham Corporation, priority 1995, dated 2003).

Tests used:
[1] = system: bone resorption; details: measured by acute changes in serum calcium; rats on calcium deficient diets
[2] = system: bone resorption; details: mouse bone organ culture system
[3] = system: bone resorption; details: mouse calvariae

| Compound | prevention of bone resorption in vivo [1] | prevention of bone resorption [2] | inhibition of PFH stimulated bone resorption [3] |
| --- | --- | --- | --- |
| CC(C)C[C@H](NC(=O)[C@H]1O[C@@H]1C(=O)O)C(=O)NCCCCN=C(N)N [Example E-64, E-64] | effective at preventing bone resorption in vivo | – | – |
| C[C@H](NC(=O)[C@H](Cc1ccccc1)NC(=O)OCc1ccccc1)C(=O)C=[N+]=[N-] [Z-Phe-Ala-CHN2] | – | prevent bone resorption | – |
| CC(=O)N[C@@H](CC(C)C)C(=O)N[C@@H](CC(C)C)C(=O)N[C@H](C=O)CCCNC(=N)N [leupeptin] | effective at preventing bone resorption in vivo | prevent bone resorption | – |
| cystatin | – | – | inhibits PFH stimulated bone resorption |
